Assay [1] addresses T1, human α1G T-type channels (Homo sapiens, UniProt O43497).
T1 construct: expressed in transfected cells; host or cells: HEK 293
As to the kind of experiment: T-type calcium channel block, whole cell patch clamp (α1G). It counts as cell-based. Conditions: HEK cells stably expressing human α1G; mainly non-inactivated protocol; values above 10 μM represented as 10 μM, values below 0.30 μM represented as 0.30 μM. On the procedure: (§1) T-type calcium channel blocking activity was assayed in human embryonic kidney cells, HEK 293, stably transfected with the T-type calcium channel subunits. Briefly, cells were cultured in Dulbecco's modified eagle medium (DMEM) supplemented with 10% fetal bovine serum, 200 U/ml penicillin and 0.2 mg/ml streptomycin at 37° C. with 5% CO2. At 85% confluency cells were split with 0.25% trypsin/1 mM EDTA and plated at 10% confluency on glass coverslips. At 12 hours the medium was replaced and the cells stably transfected using a standard calcium phosphate protocol and the appropriate calcium channel cDNA's. Fresh DMEM was supplied and the cells transferred to 28° C./5% CO2. Cells were incubated for 1 to 2 days prior to whole cell recording.
(§2) Standard patch-clamp techniques were employed to identify blockers of T-type currents. Briefly, previously described HEK cell lines stably expressing human α1G, α1H and α1I T-type channels were used for all the recordings (passage #: 4-20, 37° C., 5% CO2). Whole cell patch clamp experiments were performed using an Axopatch 200B amplifier (Axon Instruments, Burlingame, Calif.) linked to a personal computer equipped with pCLAMP software. Data were analyzed using Clampfit (Axon Instruments) and SigmaPlot 4.0 (Jandel Scientific). To obtain T-type currents, plastic dishes containing semi-confluent cells were positioned on the stage of a ZEISS AXIOVERT S100 microscope after replacing the culture medium with external solution (see below). Whole-cell patches were obtained using pipettes (borosilicate glass with filament, O.D.: 1.5 mm, I.D.: 0.86 mm, 10 cm length), fabricated on a SUTTER P-97 puller with resistance values of ˜5 MΩ (see below for internal solution).
(§3) In the non-inactivating protocol, the holding potential is set at −110 mV and with a pre-pulse at −100 mV for 1 second prior to the test pulse at −40 mV for 50 ms. In the inactivation protocol, the pre-pulse is at approximately −85 mV for 1 second, which inactivates about 15% of the T-type channels.
(§4) Test compounds were dissolved in external solution, 0.1-0.01% DMSO. After 10 min rest, they were applied by gravity close to the cell using a WPI microfil tubing. The “non-inactivated” pre-pulse was used to examine the resting block of a compound. The “inactivated” protocol was employed to study voltage-dependent block. However, the initial data shown below were mainly obtained using the non-inactivated protocol only. . IC50 values are shown for various compounds of the invention in Table 4 for the drug of interest. Values are shown in μM and values above 10 μM are simply represented as 10 μM.
(The patch-clamp technique gives a direct electrical read-out from membranes.)

The target in assay [2] is T2, human α1H T-type channels (Homo sapiens, UniProt O95180).
T2 construct: expressed in transfected cells; host or cells: HEK 293
T2 sequence (O95180 whole entry): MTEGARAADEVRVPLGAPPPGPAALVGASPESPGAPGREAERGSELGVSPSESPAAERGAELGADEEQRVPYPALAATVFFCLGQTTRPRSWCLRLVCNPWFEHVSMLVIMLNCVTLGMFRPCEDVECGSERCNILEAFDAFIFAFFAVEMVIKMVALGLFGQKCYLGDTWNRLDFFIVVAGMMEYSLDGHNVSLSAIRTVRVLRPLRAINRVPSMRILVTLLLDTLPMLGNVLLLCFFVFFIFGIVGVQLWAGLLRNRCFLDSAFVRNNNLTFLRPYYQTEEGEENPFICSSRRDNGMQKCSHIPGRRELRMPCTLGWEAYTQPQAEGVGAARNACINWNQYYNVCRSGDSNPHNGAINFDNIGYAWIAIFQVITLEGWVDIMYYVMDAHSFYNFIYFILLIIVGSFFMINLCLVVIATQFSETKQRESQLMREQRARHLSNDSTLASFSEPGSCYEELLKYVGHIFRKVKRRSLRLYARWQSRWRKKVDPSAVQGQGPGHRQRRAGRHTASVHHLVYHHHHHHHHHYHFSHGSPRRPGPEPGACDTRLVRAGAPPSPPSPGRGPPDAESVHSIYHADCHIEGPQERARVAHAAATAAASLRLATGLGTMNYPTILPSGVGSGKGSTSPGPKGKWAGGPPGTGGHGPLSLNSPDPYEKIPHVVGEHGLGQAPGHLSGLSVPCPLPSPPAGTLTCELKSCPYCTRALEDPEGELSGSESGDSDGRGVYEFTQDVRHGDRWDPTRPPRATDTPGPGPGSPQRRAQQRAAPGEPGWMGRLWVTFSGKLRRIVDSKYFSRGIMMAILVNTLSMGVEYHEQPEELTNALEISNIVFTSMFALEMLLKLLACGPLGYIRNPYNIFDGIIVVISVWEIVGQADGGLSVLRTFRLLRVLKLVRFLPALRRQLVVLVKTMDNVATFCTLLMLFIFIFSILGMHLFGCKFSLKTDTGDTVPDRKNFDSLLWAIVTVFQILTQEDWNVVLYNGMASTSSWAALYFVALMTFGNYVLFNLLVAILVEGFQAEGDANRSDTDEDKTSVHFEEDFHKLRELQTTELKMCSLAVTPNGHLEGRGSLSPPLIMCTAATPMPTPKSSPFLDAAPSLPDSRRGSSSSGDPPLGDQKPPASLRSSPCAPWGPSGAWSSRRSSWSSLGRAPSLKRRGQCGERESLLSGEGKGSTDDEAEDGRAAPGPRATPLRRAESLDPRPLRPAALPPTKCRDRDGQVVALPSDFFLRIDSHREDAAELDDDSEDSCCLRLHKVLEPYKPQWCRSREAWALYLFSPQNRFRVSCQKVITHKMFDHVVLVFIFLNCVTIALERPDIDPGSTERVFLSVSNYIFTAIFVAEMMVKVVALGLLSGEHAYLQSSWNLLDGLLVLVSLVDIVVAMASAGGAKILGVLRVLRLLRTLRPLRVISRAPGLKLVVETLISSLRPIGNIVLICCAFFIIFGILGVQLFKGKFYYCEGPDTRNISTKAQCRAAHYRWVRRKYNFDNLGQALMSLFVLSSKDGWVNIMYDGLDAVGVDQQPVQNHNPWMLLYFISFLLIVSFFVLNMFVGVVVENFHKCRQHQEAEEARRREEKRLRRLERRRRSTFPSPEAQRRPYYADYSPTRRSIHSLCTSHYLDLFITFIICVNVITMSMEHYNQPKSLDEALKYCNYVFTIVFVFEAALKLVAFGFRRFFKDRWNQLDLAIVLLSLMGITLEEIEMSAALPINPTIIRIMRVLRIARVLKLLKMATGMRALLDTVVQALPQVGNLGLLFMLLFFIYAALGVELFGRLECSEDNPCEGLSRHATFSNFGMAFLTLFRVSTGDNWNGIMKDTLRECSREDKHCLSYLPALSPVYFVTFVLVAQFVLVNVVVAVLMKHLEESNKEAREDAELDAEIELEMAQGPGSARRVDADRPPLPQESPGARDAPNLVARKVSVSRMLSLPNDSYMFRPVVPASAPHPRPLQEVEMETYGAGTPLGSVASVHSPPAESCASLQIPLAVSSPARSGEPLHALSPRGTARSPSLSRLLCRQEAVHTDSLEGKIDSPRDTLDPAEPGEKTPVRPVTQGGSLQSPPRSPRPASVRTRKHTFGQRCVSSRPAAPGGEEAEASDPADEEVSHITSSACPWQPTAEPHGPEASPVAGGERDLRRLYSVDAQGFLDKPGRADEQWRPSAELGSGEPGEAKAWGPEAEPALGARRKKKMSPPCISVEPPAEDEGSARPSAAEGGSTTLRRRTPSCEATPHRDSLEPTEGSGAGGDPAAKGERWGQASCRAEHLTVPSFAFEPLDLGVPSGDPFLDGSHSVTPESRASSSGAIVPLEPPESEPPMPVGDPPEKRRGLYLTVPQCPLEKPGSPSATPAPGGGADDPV
As to the kind of experiment: T-type calcium channel block, whole cell patch clamp (α1H). Format: cell-based. Particulars: HEK cells stably expressing human α1H; mainly non-inactivated protocol; values above 10 μM represented as 10 μM. On the procedure:
as §1, §2, §3, §4

T1 sequence (O43497 whole entry): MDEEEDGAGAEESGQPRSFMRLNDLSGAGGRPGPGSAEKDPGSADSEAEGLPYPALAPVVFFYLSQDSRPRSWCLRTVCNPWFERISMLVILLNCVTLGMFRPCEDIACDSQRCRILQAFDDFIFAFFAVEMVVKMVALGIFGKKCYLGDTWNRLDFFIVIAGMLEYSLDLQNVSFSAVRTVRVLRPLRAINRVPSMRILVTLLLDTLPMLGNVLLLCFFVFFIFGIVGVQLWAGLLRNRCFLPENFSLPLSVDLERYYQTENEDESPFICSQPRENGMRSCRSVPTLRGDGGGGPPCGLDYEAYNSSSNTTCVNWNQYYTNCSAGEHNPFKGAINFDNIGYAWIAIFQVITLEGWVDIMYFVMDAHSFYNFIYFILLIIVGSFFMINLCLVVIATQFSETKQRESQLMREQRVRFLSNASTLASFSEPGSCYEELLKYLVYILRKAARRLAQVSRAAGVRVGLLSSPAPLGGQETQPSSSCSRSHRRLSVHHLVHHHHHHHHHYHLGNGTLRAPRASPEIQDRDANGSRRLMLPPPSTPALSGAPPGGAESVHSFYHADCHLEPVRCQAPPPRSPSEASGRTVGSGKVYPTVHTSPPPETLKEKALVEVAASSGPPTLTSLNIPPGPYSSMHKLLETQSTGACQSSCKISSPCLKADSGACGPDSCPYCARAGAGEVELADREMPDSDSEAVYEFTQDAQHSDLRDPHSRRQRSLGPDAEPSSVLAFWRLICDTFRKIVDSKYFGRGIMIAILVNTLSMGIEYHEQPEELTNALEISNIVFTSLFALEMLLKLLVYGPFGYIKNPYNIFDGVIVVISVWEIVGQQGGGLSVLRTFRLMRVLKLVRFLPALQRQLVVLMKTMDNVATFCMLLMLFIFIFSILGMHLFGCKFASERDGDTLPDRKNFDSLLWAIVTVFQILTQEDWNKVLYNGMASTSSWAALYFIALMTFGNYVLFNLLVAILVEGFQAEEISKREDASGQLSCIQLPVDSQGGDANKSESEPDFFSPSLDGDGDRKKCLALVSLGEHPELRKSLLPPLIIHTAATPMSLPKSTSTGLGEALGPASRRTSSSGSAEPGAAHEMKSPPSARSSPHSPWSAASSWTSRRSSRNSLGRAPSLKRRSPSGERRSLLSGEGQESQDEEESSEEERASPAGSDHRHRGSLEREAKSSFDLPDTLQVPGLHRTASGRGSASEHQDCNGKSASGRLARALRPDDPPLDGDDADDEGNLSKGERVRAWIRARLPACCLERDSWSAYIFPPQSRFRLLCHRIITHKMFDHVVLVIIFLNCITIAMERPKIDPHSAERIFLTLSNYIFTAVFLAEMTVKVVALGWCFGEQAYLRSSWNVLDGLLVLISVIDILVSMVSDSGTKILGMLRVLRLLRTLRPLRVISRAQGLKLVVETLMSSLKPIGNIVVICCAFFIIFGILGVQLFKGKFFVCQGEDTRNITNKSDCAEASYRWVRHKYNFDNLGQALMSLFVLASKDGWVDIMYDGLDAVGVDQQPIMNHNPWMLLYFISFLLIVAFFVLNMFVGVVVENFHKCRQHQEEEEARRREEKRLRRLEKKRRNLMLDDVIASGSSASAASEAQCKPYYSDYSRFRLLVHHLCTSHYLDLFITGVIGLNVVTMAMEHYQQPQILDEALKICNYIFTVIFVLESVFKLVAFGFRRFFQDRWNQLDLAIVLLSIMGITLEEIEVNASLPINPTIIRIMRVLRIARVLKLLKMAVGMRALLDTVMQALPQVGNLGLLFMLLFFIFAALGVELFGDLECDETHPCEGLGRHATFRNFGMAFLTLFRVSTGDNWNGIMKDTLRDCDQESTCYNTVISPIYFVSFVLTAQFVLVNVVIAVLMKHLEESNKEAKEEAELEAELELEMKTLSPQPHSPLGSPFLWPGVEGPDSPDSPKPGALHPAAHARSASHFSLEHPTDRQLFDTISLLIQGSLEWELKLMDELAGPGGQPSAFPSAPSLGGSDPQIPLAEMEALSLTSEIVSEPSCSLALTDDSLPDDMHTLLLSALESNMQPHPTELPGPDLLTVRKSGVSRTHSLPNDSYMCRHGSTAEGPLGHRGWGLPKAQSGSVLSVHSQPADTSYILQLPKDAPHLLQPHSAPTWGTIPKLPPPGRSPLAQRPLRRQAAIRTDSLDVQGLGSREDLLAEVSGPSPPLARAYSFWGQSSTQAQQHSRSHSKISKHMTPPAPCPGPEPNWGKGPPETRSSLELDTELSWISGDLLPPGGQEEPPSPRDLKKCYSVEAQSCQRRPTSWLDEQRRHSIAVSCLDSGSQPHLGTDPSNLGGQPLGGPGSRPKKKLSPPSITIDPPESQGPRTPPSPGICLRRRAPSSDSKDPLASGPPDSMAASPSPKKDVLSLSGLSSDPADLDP

In the case of `CCC1CCCN1C(=O)CN[C@H]1CC[C@@H](CNC(=O)c2cc(C(F)(F)F)cc(C(F)(F)F)c2)CC1` (stereo partly drawn) [Compound 54, N-((cis-4-(2-(2-ethylpyrrolidin-1-yl)-2-oxoethylamino)cyclohexyl)methyl)-3,5-bis(trifluoromethyl)benzamide], the figures for the IC50 in assay [1] and in assay [2] were no more than 300 nM and 210 nM, respectively.

With `O=C(CCC(F)(F)F)NCCN[C@H]1CC[C@H](CNC(=O)c2cc(C(F)(F)F)cc(C(F)(F)F)c2)CC1` [Compound 102, N-((trans-4-(2-(4,4,4-trifluorobutanamido)ethylamino)cyclohexyl)methyl)-3,5-bis(trifluoromethyl)benzamide], the figures for the IC50 in assay [1] and in assay [2] were 970 nM and 1810 nM, respectively.

As to `NC1(C(=O)N[C@H]2CC[C@H](CC(=O)Nc3cc(C(F)(F)F)cc(C(F)(F)F)c3)CC2)CCCC1` [Compound 124, 1-amino-N-(trans-4-(2-(3,5-bis(trifluoromethyl)phenylamino)-2-oxoethyl)cyclohexyl)cyclopentanecarboxamide], the values for the IC50 in assay [1] and in assay [2] were 830 nM and no less than 10000 nM, respectively.

On to `N[C@H]1CCCC[C@H]1C(=O)N[C@H]1CC[C@H](CC(=O)Nc2cc(C(F)(F)F)cc(C(F)(F)F)c2)CC1` [Compound 122, (1R,2S)-2-amino-N-(trans-4-(2-(3,5-bis(trifluoromethyl)phenylamino)-2-oxoethyl)cyclohexyl)cyclohexanecarboxamide], for which the figures for the IC50 in assay [1] and in assay [2] were 840 nM and 3620 nM, respectively.

For the compound `Cc1ccc(-c2csc(NC(=O)C[C@H]3CC[C@@H](NC(=O)C4(c5ccccc5)CCNCC4)CC3)n2)cc1` [Compound 132, N-(cis-4-(2-oxo-2-(4-p-tolylthiazol-2-ylamino)ethyl)cyclohexyl)-4-phenylpiperidine-4-carboxamide], the IC50 – broadly, the concentration that inhibits the measured activity by half – is 1090 nM in assay [1] and no less than 10000 nM in assay [2].

Consider `CC(C)(C)[C@H](O)C(=O)NC1CCC(CC(=O)Nc2cc(C(F)(F)F)cc(C(F)(F)F)c2)CC1` (stereo in doubt) [Compound 108, (S)-N-((trans)-4-(2-(3,5-bis(trifluoromethyl)phenylamino)-2-oxoethyl)cyclohexyl)-2-hydroxy-3,3-dimethylbutanamide], for which the IC50 came out at 450 nM in assay [1] and 1530 nM in assay [2].

Turning to `O=C(NC[C@H]1CC[C@H](NC(=O)[C@@H]2CC[C@H](c3ccccc3)N2)CC1)c1cc(C(F)(F)F)cc(C(F)(F)F)c1` [Compound 135, (2S,5R)-N-(trans-4-((3,5-bis(trifluoromethyl)benzamido)methyl)cyclohexyl)-5-phenylpyrrolidine-2-carboxamide], the IC50 in assay [1] came to 1110 nM; in assay [2], 5650 nM.

In the case of `O=C(NC[C@H]1CC[C@@H](NCc2c(F)cccc2Cl)CC1)c1cc(F)cc(C(F)(F)F)c1` [Compound 23, N-((cis-4-(2-chloro-6-fluorobenzylamino)cyclohexyl)methyl)-3-fluoro-5-(trifluoromethyl)benzamide], the IC50 in assay [1] was 910 nM; in assay [2], 2870 nM.

With `O=C(NC[C@H]1CC[C@H](NC(=O)[C@H]2CC[C@@H](c3ccccc3)N2)CC1)c1cc(C(F)(F)F)cc(C(F)(F)F)c1` [Compound 137, (2R,5S)-N-(trans-4-((3,5-bis(trifluoromethyl)benzamido)methyl)cyclohexyl)-5-phenylpyrrolidine-2-carboxamide], the IC50 in assay [1] was 700 nM; in assay [2], 7850 nM.

Regarding `CC1(C)COCCN1C(=O)CN[C@H]1CC[C@@H](CNC(=O)c2cc(F)cc(Cl)c2)CC1` [Compound 194, 3-chloro-N-(((1s,4s)-4-(2-(3,3-dimethylmorpholino)-2-oxoethylamino)cyclohexyl)methyl)-5-fluorobenzamide], the IC50 came out at 3400 nM in assay [1] and 400 nM in assay [2].

With `COCC(C)(C)N(C)C(=O)CN[C@H]1CC[C@@H](CNC(=O)c2cc(F)cc(Cl)c2)CC1` [Compound 212, 3-chloro-5-fluoro-N-(((1s,4s)-4-(2-((1-methoxy-2-methylpropan-2-yl)(methyl)amino)-2-oxoethylamino)cyclohexyl)methyl)benzamide], the IC50 in assay [1] amounted to 1580 nM; in assay [2] it was 420 nM.

On to `CN(C(=O)CN[C@H]1CC[C@@H](CNC(=O)c2cc(F)cc(Cl)c2)CC1)C1(C)CCC1` [Compound 213, 3-chloro-5-fluoro-N-(((1s,4s)-4-(2-(methyl(1-methylcyclobutyl)amino)-2-oxoethylamino)cyclohexyl)methyl)benzamide], for which the IC50 is 1030 nM in assay [1] and 330 nM in assay [2].

Consider `CC1(NC(=O)CN[C@H]2CC[C@H](CNC(=O)c3cccc(OC(F)(F)F)c3)CC2)CCC1` [Compound 190, N-(((1r,4r)-4-(2-(1-methylcyclobutylamino)-2-oxoethylamino)cyclohexyl)methyl)-3-(trifluoromethoxy)benzamide], for which the IC50 in assay [1] stood at 1630 nM; in assay [2], 620 nM.

In the case of `COc1cccnc1CN[C@H]1CC[C@@H](CNC(=O)c2cc(C(F)(F)F)cc(C(F)(F)F)c2)CC1` [Compound 11, N-((cis-4-((3-methoxypyridin-2-yl)methylamino)cyclohexyl)methyl)-3,5-bis(trifluoromethyl)benzamide], the IC50 in assay [1] stood at 1570 nM; in assay [2], 2330 nM.

On to `CCC(C)NC(=O)CN[C@H]1CC[C@@H](CNC(=O)c2cc(C(F)(F)F)cc(C(F)(F)F)c2)CC1` (stereo partly drawn) [Compound 71, N-((cis-4-(2-(sec-butylamino)-2-oxoethylamino)cyclohexyl)methyl)-3,5-bis(trifluoromethyl)benzamide], for which the IC50 in assay [1] was no more than 300 nM; in assay [2], 270 nM.

In the case of `COc1cc(F)cc(C(=O)NC[C@H]2CC[C@H](NCC(=O)NC3(C)CCC3)CC2)c1` [Compound 207, 3-fluoro-5-methoxy-N-(((1r,4r)-4-(2-(1-methylcyclobutylamino)-2-oxoethylamino)cyclohexyl)methyl)benzamide], the IC50 amounted to 3820 nM in assay [1] and 920 nM in assay [2].

As to `COc1cc(F)cc(C(=O)NC[C@H]2CC[C@@H](NCC(=O)N(C)C(C)(C)C)CC2)c1` [Compound 200, N-(((1s,4s)-4-(2-(tert-butyl(methyl)amino)-2-oxoethylamino)cyclohexyl)methyl)-3-fluoro-5-methoxybenzamide], the values for the IC50 in assay [1] and in assay [2] were 3350 nM and 470 nM, respectively.

Regarding `COc1cccnc1CN[C@H]1CC[C@H](CNC(=O)c2cc(C(F)(F)F)cc(C(F)(F)F)c2)CC1` [Compound 30, N-((trans-4-((3-methoxypyridin-2-yl)methylamino)cyclohexyl)methyl)-3,5-bis(trifluoromethyl)benzamide], the IC50 in assay [1] amounted to 1060 nM; in assay [2], 5830 nM.

Regarding `Cc1cccc(CN[C@H]2CC[C@@H](CNC(=O)c3cc(F)cc(C(F)(F)F)c3)CC2)c1O` [Compound 18, 3-fluoro-N-((cis-4-(2-hydroxy-3-methylbenzylamino)cyclohexyl)methyl)-5-(trifluoromethyl)benzamide], the IC50 in assay [1] was 460 nM; in assay [2], 1370 nM.

As to `COc1cc(F)cc(C(=O)NC[C@H]2CC[C@@H](NCC(=O)N3CCOCC3(C)C)CC2)c1` [Compound 198, N-(((1s,4s)-4-(2-(3,3-dimethylmorpholino)-2-oxoethylamino)cyclohexyl)methyl)-3-fluoro-5-methoxybenzamide], the IC50 in assay [1] was determined as 9920 nM; in assay [2], 630 nM.

For `O=C(CN[C@H]1CC[C@H](CNC(=O)c2cc(C(F)(F)F)cc(C(F)(F)F)c2)CC1)NN1CCCCC1` [Compound 60, N-((trans-4-(2-oxo-2-(piperidin-1-ylamino)ethylamino)cyclohexyl)methyl)-3,5-bis(trifluoromethyl)benzamide], the values for the IC50 in assay [1] and in assay [2] were 1300 nM and 1890 nM, respectively.

On to `CC1(NC(=O)CN[C@H]2CC[C@@H](CNC(=O)c3cc(F)cc(Cl)c3)CC2)CCC1` [Compound 193, 3-chloro-5-fluoro-N-(((1s,4s)-4-(2-(1-methylcyclobutylamino)-2-oxoethylamino)cyclohexyl)methyl)benzamide], for which the IC50 in assay [1] worked out at 720 nM; in assay [2], 230 nM.

Regarding `COc1ccc(CN[C@H]2CC[C@@H](CNC(=O)c3cc(F)cc(C(F)(F)F)c3)CC2)c(OC)c1` [Compound 24, N-((cis-4-(2,4-dimethoxybenzylamino)cyclohexyl)methyl)-3-fluoro-5-(trifluoromethyl)benzamide], the figures for the IC50 in assay [1] and in assay [2] were 340 nM and 590 nM, respectively.

The values above are taken from patent publication US20090298834A1, “4-(AMINOMETHYL)CYCLOHEXANAMINE DERIVATIVES AS CALCIUM CHANNEL BLOCKERS” (priority 2008, published 2009).
